This note sets out measurements from ChEMBL document CHEMBL4049409, “Structure-based discovery of LpxC inhibitors” (Bioorg Med Chem Lett, 2017).

In brackets after ≈: the same amount, converted by molar mass.

In experiment [1] the target is T1, UDP-3-O-acyl-N-acetylglucosamine deacetylase (Pseudomonas aeruginosa (strain ATCC 15692 / PAO1 / 1C / PRS 101 / LMG12228), UniProt P47205).
T1 sequence (P47205 whole entry): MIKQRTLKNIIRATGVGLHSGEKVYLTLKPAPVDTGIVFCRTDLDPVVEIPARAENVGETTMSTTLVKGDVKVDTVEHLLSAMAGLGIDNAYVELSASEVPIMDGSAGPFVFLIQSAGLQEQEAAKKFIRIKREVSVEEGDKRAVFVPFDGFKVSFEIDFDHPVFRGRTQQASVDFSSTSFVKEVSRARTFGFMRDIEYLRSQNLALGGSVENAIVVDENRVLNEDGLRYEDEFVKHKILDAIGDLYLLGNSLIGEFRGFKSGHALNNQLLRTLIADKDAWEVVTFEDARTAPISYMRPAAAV
Nature of the experiment: Inhibition of LpxC in Pseudomonas aeruginosa isolate 44 ATCC 27853.

The next experiment concerns Pseudomonas aeruginosa. Nature of the experiment: Antibacterial activity against Pseudomonas aeruginosa isolate 44 ATCC 27853. The class given is functional.
The next experiment relates to Klebsiella pneumoniae. Put plainly: Antibacterial activity against Klebsiella pneumoniae isolate 21 ATCC 4352. The format is functional.
Experiment [2] can be described thus: Inhibition of LpxC in Klebsiella pneumoniae isolate 21 ATCC 4352.
The nature of experiment [3]: Inhibition of LpxC in Acinetobacter baumannii focus ID 961025.
The next experiment deals with Acinetobacter baumannii. Put plainly: Antibacterial activity against Acinetobacter baumannii focus ID 961025. The format is functional.
Experiment [4] concerns the target T2, UDP-3-O-acyl-N-acetylglucosamine deacetylase (Escherichia coli K-12, UniProt P0A725).
T2 sequence (P0A725 whole entry): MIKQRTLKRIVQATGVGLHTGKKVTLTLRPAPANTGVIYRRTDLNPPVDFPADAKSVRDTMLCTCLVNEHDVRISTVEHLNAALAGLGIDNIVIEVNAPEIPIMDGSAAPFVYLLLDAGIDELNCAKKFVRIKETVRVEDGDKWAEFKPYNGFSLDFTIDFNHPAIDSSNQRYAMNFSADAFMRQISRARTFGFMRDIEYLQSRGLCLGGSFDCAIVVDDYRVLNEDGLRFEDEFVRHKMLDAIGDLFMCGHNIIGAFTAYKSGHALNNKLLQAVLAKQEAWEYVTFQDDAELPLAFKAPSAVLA
Put plainly: Inhibition of LpxC in Escherichia coli isolate 35 ATCC 25922. Set-up: species or system Escherichia coli ATCC 25922.

The test system of another experiment is Escherichia coli. Put plainly: Antibacterial activity against Escherichia coli isolate 35 ATCC 25922. The format is functional.

As usually defined, the IC50 is the concentration that gives 50% inhibition. Higher therefore signals a need for much substance. What is called MIC is the least concentration at which growth counts as inhibited. A higher MIC goes with a need for much substance. On to `C[C@@H](O)[C@H](NC1CN(C)Cc2cc(C#Cc3ccccc3)ccc21)C(=O)NO` (stereo not given in full), for which the concentration for half-maximal inhibition (IC50) was determined as 108 nM in experiment [1], 18 nM in experiment [2], 310 nM in experiment [3] and 28 nM in experiment [4]. The MIC was above 128 µg/mL in the experiment with Pseudomonas aeruginosa, 0.5 µg/mL (≈ 1.32 µM) against Klebsiella pneumoniae, above 128 µg/mL with Acinetobacter baumannii and 2 µg/mL (≈ 5.27 µM) in the experiment on Escherichia coli.

`C[C@@H](O)[C@H](NC1CCN(C)c2cc(C#Cc3ccccc3)ccc21)C(=O)NO` (stereo not given in full): the IC50 in experiment [1] amounted to 15 nM; in experiment [2], 4 nM; in experiment [3], 124 nM; in experiment [4] it was 2 nM. In addition, the MIC against Pseudomonas aeruginosa was above 128 µg/mL; with Klebsiella pneumoniae it was 1 µg/mL (≈ 2.64 µM); against Acinetobacter baumannii, above 128 µg/mL; in the experiment with Escherichia coli, 8 µg/mL (≈ 21.1 µM).

Turning to `C[C@@H](O)[C@H](NC1CCc2cc(C#Cc3ccc(CN4CCOCC4)cc3)ccc21)C(=O)NO` (stereo not given in full), the IC50 stood at 4 nM in experiment [1], 2 nM in experiment [2], 382 nM in experiment [3] and 2 nM in experiment [4]. Besides, the MIC was 8 µg/mL (≈ 17.8 µM) with Pseudomonas aeruginosa, 0.125 µg/mL (≈ 0.278 µM) with Klebsiella pneumoniae, above 64 µg/mL in the experiment with Acinetobacter baumannii and 0.25 µg/mL (≈ 0.556 µM) against Escherichia coli.

As for `C[C@@H](O)[C@H](NC1CCc2cc(C#Cc3ccccc3)ccc21)C(=O)NO` (stereo not given in full), the IC50 was determined as 20 nM in experiment [1], 5 nM in experiment [2], 165 nM in experiment [3] and 7 nM in experiment [4]. In addition, the MIC in the experiment with Pseudomonas aeruginosa was 32 µg/mL (≈ 91.3 µM); against Klebsiella pneumoniae, 0.125 µg/mL (≈ 0.357 µM); in the experiment with Acinetobacter baumannii, 16 µg/mL (≈ 45.7 µM); against Escherichia coli, 0.5 µg/mL (≈ 1.43 µM).

Consider `C[C@@H](O)[C@H](NC1COCc2cc(C#Cc3ccc(CN4CCOCC4)cc3)ccc21)C(=O)NO` (stereo not given in full), for which the IC50 in experiment [1] worked out at 6 nM; in experiment [2] it was 1 nM; in experiment [3] it was 25 nM; in experiment [4], 1 nM. The MIC against Pseudomonas aeruginosa is 64 µg/mL (≈ 137 µM); against Klebsiella pneumoniae, below 0.125 µg/mL; against Acinetobacter baumannii, 64 µg/mL (≈ 137 µM); in the experiment on Escherichia coli, 0.25 µg/mL (≈ 0.537 µM).

Regarding `C[C@@H](O)[C@H](NCc1ccc(C#Cc2ccccc2)cc1)C(=O)NO`, the IC50 in experiment [1] was determined as 20 nM; in experiment [2], 48 nM; in experiment [3] it was 17 nM; in experiment [4], 67 nM. In addition, the MIC in the experiment on Pseudomonas aeruginosa is above 128 µg/mL; in the experiment on Klebsiella pneumoniae, 0.5 µg/mL (≈ 1.54 µM); in the experiment on Acinetobacter baumannii, 32 µg/mL (≈ 98.6 µM); with Escherichia coli, 4 µg/mL (≈ 12.3 µM).

Turning to `CC(N[C@H](C(=O)NO)[C@@H](C)O)c1ccc(C#Cc2ccccc2)cc1` (stereo not given in full), the IC50 in experiment [1] came out at 72 nM; in experiment [2], 64 nM; in experiment [3], 160 nM; in experiment [4], 96 nM. The MIC in the experiment on Pseudomonas aeruginosa was above 64 µg/mL; in the experiment on Klebsiella pneumoniae, 1 µg/mL (≈ 2.96 µM); with Acinetobacter baumannii it was 64 µg/mL (≈ 189 µM); with Escherichia coli it was 4 µg/mL (≈ 11.8 µM).

`CCCCC(N[C@H](C(=O)NO)[C@@H](C)O)c1ccc(C#Cc2ccccc2)cc1` (stereo not given in full): the IC50 in experiment [1] is 616 nM; in experiment [2] it was 724 nM; in experiment [3], 1460 nM; in experiment [4], 534 nM. Further, the minimal inhibitory concentration (MIC) with Pseudomonas aeruginosa was above 128 µg/mL; against Klebsiella pneumoniae it was 2 µg/mL (≈ 5.26 µM); against Acinetobacter baumannii, above 128 µg/mL; against Escherichia coli, 64 µg/mL (≈ 168 µM).

For `CCCC(N[C@H](C(=O)NO)[C@@H](C)O)c1ccc(C#Cc2ccccc2)cc1` (stereo not given in full), the IC50 in experiment [1] amounted to 50 nM; in experiment [2] it was 53 nM; in experiment [3], 273 nM; in experiment [4], 60 nM. Moreover, the MIC was found to be 64 µg/mL (≈ 175 µM) against Pseudomonas aeruginosa, 0.25 µg/mL (≈ 0.682 µM) against Klebsiella pneumoniae, 32 µg/mL (≈ 87.3 µM) in the experiment on Acinetobacter baumannii and 2 µg/mL (≈ 5.46 µM) against Escherichia coli.

Take `C[C@@H](O)[C@H](NC1CCCc2cc(C#Cc3ccc(CN4CCOCC4)cc3)ccc21)C(=O)NO` (stereo not given in full): the IC50 in experiment [1] is 2 nM; in experiment [2], 0.2 nM; in experiment [3], 80 nM; in experiment [4] it was 0.3 nM. Further, the MIC in the experiment on Pseudomonas aeruginosa is 32 µg/mL (≈ 69 µM); with Klebsiella pneumoniae it was below 0.125 µg/mL; with Acinetobacter baumannii, 128 µg/mL (≈ 276 µM); with Escherichia coli it was 0.25 µg/mL (≈ 0.539 µM).
